Data: ChEMBL document CHEMBL4732203, “Synthesis of polyenylpyrrole derivatives with selective growth inhibitory activity against T-cell acute lymphoblastic leukemia cells” (Bioorg Med Chem Lett, 2021)

Legend:
Assay type in all cases: functional, cell-based
[1] = system: CCRF-CEM; experiment: Cytotoxicity against human CCRF-CEM cells assessed as reduction in cell viability incubated for 72 hrs
[2] = system: Raji; experiment: Cytotoxicity against human Raji cells assessed as reduction in cell viability incubated for 72 hrs
[3] = system: HeLa; experiment: Cytotoxicity against human HeLa cells assessed as reduction in cell viability incubated for 3 days; settings: 72 h
[4] = system: HSC-3; experiment: Cytotoxicity against human HSC-3 cells assessed as reduction in cell viability incubated for 3 days; settings: HSC-3, 72 h

Structure (SMILES) | IC50 [1] [µM] | IC50 [2] [µM] | IC50 [3] [µM] | IC50 [4] [µM]
CCOC(=O)/C=C/c1ccc[nH]1 | > 10 | > 10 | – | –
CCOC(=O)/C=C/C=C/C=C/C=C/c1ccco1 | > 10 | > 10 | – | –
CCOC(=O)/C=C/C=C/C=C/C=C/c1[nH]ccc1Cl | 0.27 | > 10 | > 10 | > 10
CCOC(=O)/C=C/C=C/c1nccs1 | > 10 | > 10 | – | –
CCOC(=O)/C=C/C=C/C=C/c1nccs1 | 4.5 | 4.35 | – | –
CCOC(=O)/C=C/C=C/C=C/C=C/c1ccc[nH]1 | 1.34 | 4.09 | – | –
CCOC(=O)/C=C/C=C/c1ccco1 | > 10 | > 10 | – | –
O=C(/C=C/C=C/C=C/c1ccc[nH]1)OCc1ccccc1 | 0.83 | > 10 | – | –
O=C(/C=C/C=C/C=C/C=C/c1ccc[nH]1)c1ccccc1 | 0.72 | 5.99 | – | –
COc1cc(\C(C)=C/C=C/C=C/C=C/c2[nH]ccc2Cl)oc(=O)c1C | 1.76 | > 10 | – | –
O=C(/C=C/C=C/C=C/c1ccc[nH]1)c1ccccc1 | 3.07 | 9.89 | – | –
CCOC(=O)/C=C/C=C/C=C/C=C/c1cccn1C | > 10 | > 10 | – | –
CCOC(=O)/C=C/C=C/C=C/C=C/c1nccs1 | > 10 | > 10 | – | –
CCOC(=O)/C=C/C=C/C=C/c1ccco1 | > 10 | > 10 | – | –
O=C(/C=C/C=C/C=C/C=C/c1ccc[nH]1)OCc1ccccc1 | 0.19 | 1.4 | – | –
CCOC(=O)/C=C/C=C/C=C/c1ccc[nH]1 | 3.67 | > 10 | – | –
CCOC(=O)/C=C/C=C/C=C/c1[nH]ccc1Cl | 2.42 | > 10 | – | –
CCOC(=O)/C=C/C=C/c1ccc[nH]1 | > 10 | > 10 | – | –
CCOC(=O)/C=C/C=C/C=C/C=C/C=C/c1ccc[nH]1 | 0.45 | > 10 | – | –
O=C(/C=C/C=C/C=C/C=C/c1[nH]ccc1Cl)OCc1ccccc1 | 0.28 | 6.7 | – | –
CCOC(=O)/C=C/C=C/c1[nH]ccc1Cl | > 10 | > 10 | – | –
COc1cc(/C=C/C=C/C=C/C=C/c2[nH]ccc2Cl)oc(=O)c1 [AUXARCONJUGATIN B] | 0.51 | 5.74 | – | –
